Source: ChEMBL document CHEMBL3862039 (ACS Med Chem Lett, 2016)
Changes are numbered by the printed parent chain. Activity calls are given as the source filed them. No cut-off for these calls is given here.

Columns and labels:
[1] = biological target: T1, Androgen receptor (Homo sapiens) (UniProt P10275); assay: Antagonist activity at AR in human LNCAP cells assessed as suppression of DHT-induced receptor transcriptional activity at 500 nM after 24 hrs by dual luciferase reporter gene assay; assay type: cell-based
T1 sequence (whole entry): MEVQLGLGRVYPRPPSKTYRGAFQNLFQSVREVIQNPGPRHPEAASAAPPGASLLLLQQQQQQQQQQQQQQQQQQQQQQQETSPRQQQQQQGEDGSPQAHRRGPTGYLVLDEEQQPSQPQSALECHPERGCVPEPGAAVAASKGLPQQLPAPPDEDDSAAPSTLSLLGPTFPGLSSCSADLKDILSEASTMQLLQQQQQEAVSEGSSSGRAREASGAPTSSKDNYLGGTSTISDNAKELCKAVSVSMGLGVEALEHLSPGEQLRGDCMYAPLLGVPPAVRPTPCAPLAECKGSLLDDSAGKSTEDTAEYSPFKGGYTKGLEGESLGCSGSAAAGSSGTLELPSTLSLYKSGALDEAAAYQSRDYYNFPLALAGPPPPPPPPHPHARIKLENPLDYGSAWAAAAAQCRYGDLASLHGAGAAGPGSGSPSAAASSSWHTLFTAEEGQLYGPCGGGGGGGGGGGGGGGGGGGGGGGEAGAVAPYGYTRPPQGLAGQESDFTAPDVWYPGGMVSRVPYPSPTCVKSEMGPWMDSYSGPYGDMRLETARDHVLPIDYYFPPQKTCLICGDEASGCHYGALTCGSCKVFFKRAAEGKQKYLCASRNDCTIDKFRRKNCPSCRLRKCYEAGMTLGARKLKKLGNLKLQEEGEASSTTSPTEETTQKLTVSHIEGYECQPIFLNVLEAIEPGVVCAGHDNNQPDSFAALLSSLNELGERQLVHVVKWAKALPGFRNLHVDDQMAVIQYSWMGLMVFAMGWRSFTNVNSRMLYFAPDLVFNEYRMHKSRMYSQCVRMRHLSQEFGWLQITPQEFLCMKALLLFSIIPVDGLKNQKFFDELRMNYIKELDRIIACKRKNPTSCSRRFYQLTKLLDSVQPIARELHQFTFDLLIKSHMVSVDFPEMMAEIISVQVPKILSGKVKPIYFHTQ

[2] = biological target: T1, Androgen receptor (Homo sapiens); details: LNCaP, at 5 µM
Description: Antagonist activity at AR in human LNCAP cells assessed as suppression of DHT-induced receptor transcriptional activity at 5 uM after 24 hrs by dual luciferase reporter gene assay

PC-3 [3] = assay: Agonist activity at AR W741C/T877A double mutant (unknown origin) expressed in human PC3 cells assessed as receptor transactivation at 5 uM after 24 hrs by PSA-luciferase reporter gene assay; assay type: cell-based
[4] = test system: T2, Androgen receptor (Homo sapiens), P10275 [F877L]; assay: Antagonist activity at AR F876L mutant (unknown origin) transfected in human PC3 cells assessed as suppression of DHT-induced receptor transcriptional activity at 500 nM after 24 hrs by PSA-luciferase reporter gene assay; assay type: cell-based; details: PC-3
T2 sequence (whole entry): T1 sequence (whole entry) with F877L

[5] = biological target: T1, Androgen receptor (Homo sapiens); assay: (§1) Antagonist activity at wild type AR in human PC3 cells assessed as suppression of DHT-induced receptor transcriptional activation after 24 hrs by PSA-luciferase reporter gene assay; assay type: cell-based; details: PC-3
Androgen receptor [6] = biological target: T3, Androgen receptor (Homo sapiens, UniProt P10275); assay: as §1; assay type: cell-based, PC-3
T3 sequence (P10275 whole entry): T1 sequence (whole entry)

[7] = test system: Androgen receptor (Homo sapiens), P10275 [T878A]; assay: (§2) Antagonist activity at AR T877A mutant (unknown origin) transfected in human PC3 cells assessed as inhibition of DHT-induced receptor transcriptional activation after 24 hrs by PSA-luciferase reporter gene assay; assay type: cell-based; details: PC-3
Sequence of Androgen receptor (Homo sapiens), P10275 [T878A] (P10275 whole entry T878A): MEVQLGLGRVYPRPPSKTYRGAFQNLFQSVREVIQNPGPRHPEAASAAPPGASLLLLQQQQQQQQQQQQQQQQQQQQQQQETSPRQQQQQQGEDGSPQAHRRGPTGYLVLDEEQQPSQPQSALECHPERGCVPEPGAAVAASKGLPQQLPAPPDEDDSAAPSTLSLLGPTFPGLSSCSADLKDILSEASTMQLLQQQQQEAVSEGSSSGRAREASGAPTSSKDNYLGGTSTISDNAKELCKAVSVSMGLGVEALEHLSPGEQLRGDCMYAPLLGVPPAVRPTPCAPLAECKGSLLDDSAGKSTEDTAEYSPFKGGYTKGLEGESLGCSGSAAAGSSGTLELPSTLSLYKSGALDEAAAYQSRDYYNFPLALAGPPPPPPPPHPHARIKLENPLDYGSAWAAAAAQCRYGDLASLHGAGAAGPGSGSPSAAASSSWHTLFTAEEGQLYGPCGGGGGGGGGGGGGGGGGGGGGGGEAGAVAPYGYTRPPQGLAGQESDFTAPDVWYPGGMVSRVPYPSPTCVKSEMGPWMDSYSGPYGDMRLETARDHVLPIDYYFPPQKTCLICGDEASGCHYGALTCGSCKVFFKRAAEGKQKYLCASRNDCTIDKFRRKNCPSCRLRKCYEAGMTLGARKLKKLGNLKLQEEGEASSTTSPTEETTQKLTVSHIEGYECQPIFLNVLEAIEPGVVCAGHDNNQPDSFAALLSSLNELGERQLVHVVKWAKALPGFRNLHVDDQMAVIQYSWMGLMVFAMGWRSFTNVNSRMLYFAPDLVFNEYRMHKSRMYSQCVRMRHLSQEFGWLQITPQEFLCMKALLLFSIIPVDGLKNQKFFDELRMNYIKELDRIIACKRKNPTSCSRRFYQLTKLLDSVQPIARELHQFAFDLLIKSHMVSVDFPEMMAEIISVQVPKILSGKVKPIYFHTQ

Androgen receptor [8] = biological target: Androgen receptor (Homo sapiens, UniProt P10275, T878A); assay: as §2; assay type: cell-based, PC-3
Sequence of Androgen receptor (Homo sapiens, UniProt P10275, T878A) (P10275 whole entry T878A): as above

[9] = biological target: T1, Androgen receptor (Homo sapiens); assay: Antagonist activity at AR in human LNCAP cells assessed as downregulation of PSA mRNA levels at 500 nM after 24 hrs in presence of DHT by RT-PCR analysis; assay type: cell-based
[10] = biological target: T1, Androgen receptor (Homo sapiens); assay: Antagonist activity at AR in human LNCAP cells assessed as downregulation of PSA mRNA levels at 5 uM after 24 hrs in presence of DHT by RT-PCR analysis; assay type: cell-based
LNCaP = assay: Cytotoxicity against human LNCAP cells assessed as cell growth inhibition after 72 hrs by MTT assay; assay type: functional, cell-based
PC-3 [11] = assay: Cytotoxicity against human PC3 cells assessed as cell growth inhibition after 72 hrs by MTT assay; assay type: functional, cell-based
[12] = biological target: T4, Androgen receptor (Rattus norvegicus) (UniProt P15207); assay: (§3) Displacement of fluormone-DHT green from His/GST-tagged rat AR ligand binding domain after 4 to 8 hrs by fluorescence polarization assay
T4 sequence (whole entry): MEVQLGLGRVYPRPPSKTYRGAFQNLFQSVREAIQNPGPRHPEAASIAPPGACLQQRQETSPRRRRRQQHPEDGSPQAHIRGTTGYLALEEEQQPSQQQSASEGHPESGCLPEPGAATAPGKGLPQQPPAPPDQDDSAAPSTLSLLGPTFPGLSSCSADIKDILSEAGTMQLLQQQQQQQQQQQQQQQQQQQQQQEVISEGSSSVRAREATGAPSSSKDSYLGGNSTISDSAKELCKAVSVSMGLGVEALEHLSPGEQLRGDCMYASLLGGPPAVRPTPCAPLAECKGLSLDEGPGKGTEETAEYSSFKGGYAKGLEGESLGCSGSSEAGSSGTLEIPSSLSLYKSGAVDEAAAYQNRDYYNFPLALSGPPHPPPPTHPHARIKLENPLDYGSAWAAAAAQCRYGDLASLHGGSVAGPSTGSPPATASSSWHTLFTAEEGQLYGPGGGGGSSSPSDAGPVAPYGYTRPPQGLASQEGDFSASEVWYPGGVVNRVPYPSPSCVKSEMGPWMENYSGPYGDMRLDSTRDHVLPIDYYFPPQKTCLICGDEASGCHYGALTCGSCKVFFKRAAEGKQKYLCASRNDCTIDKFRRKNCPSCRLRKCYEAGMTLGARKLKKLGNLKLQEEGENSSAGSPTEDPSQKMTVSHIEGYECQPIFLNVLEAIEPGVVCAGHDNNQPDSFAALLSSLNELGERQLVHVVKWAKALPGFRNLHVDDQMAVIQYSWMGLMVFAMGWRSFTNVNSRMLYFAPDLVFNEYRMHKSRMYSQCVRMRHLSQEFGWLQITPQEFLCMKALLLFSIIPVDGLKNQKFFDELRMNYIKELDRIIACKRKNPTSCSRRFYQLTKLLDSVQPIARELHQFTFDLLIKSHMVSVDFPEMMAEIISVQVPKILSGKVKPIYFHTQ

Androgen receptor [13] = biological target: T5, Androgen receptor (Rattus norvegicus, UniProt P15207); assay: as §3
T5 sequence (P15207 whole entry): T4 sequence (whole entry)

[14] = biological target: T1, Androgen receptor (Homo sapiens); assay: Antagonist activity at AR in human LNCAP cells assessed as downregulation of AR protein expression after 24 hrs by Western blot analysis; assay type: cell-based
[15] = test system: T2, Androgen receptor (Homo sapiens), P10275 [F877L]; assay: (§4) Antagonist activity at AR F876L mutant (unknown origin) expressed in human PC3 cells assessed as inhibition of DHT-induced receptor transactivation after 24 hrs by PSA-luciferase reporter gene assay; assay type: cell-based; details: PC-3
Androgen receptor [16] = biological target: Androgen receptor (Homo sapiens, UniProt P10275, F877L); assay: as §4; assay type: cell-based, PC-3
Sequence of Androgen receptor (Homo sapiens, UniProt P10275, F877L) (P10275 whole entry F877L): as the sequence (P10275 whole entry T878A) above, with F877L, A878T counted along it

cells = details: Homo sapiens, PC-3, 24 h
Description: Antagonist activity at AR W741C/T877A double mutant (unknown origin) transfected in human PC3 cells assessed as inhibition of DHT-induced receptor transcriptional activation after 24 hrs by PSA-luciferase reporter gene assay

CC(C)[C@]12O[C@H]1[C@@H]1O[C@@]13[C@@]1(C)CCC4=C(COC4=O)[C@@H]1C[C@@H]1O[C@@]13C2=O
inhibition [1]: Active | inhibition [2]: Active

CC(C)[C@]12O[C@H]1[C@@H]1O[C@]13[C@]1(O[C@H]1C[C@H]1C4=C(CC[C@@]13C)C(=O)OC4)[C@@H]2O
inhibition [1]: Active | inhibition [2]: Active

CC(O)(CS(=O)(=O)c1ccc(F)cc1)C(=O)Nc1ccc(C#N)c(C(F)(F)F)c1 (stereo not given)
Activity (PC-3 [3]): Active

CC1(C)[C@@H](O)CC[C@]2(C)[C@H]3CC=C4[C@@H]5C[C@@]6(C)C[C@H](OC6=O)[C@]5(C)CC[C@@]4(C)[C@]3(C)CC[C@@H]12
inhibition [2]: Active

CC1=C(O)C(=O)C=C2C1=CC=C1[C@@]2(C)CC[C@@]2(C)[C@@H]3C[C@](C)(C(=O)O)CC[C@]3(C)CC[C@]12C
inhibition [2]: Active

C[C@@]1(C(=O)O)CC[C@]2(C)CC[C@]3(C)C4=CC(=O)c5c(cc(O)c(O)c5C=O)[C@]4(C)CC[C@@]3(C)[C@@H]2C1
inhibition [2]: Active

CC(C)c1ccc2c(c1O)CC[C@H]1C3=C(CC[C@]21C)C(=O)OC3 [TRIPTOPHENOLIDE]
inhibition [4]: Active | inhibition [1]: Active | inhibition [5]: Dose-dependent effect | IC50 (Androgen receptor [6]): 0.26 µM | inhibition [7]: Dose-dependent effect | IC50 (Androgen receptor [8]): 0.388 µM | inhibition [9]: Active | inhibition [10]: Active | growth inhibition (GI) (LNCaP): Dose-dependent effect | growth inhibition (GI) (PC-3 [11]): Active | inhibition [12]: Dose-dependent effect | IC50 (Androgen receptor [13]): 0.467 µM | inhibition [14]: Dose-dependent effect | inhibition [15]: Dose-dependent effect | IC50 (Androgen receptor [16]): 0.48 µM | inhibition [2]: Active | IC50 (cells): 0.437 µM
